Test results: patent US12448375B2, “Kinase inhibitors for the treatment of neurodegenerative diseases” (Ohio State Innovation Foundation, priority 2019, dated 2025)
Read-outs that look alike come from different tables or passages of the source.

How the values were obtained:
[1] = biological target: T1, JNK3 (Homo sapiens, UniProt P53779); test: HotSpot Kinase Assay (Reaction Biology Corp.), anti-JNK3 activity; format: biochemical; details: HotSpot radiometric assay, 33P-ATP
T1 construct: purchased Reaction Biology Corp
Procedure, shortened: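 Radiometric HotSpot kinase assay in 20 mM HEPES pH 7.5 with 10 mM MgCl2, 1 mM EGTA, 0.02% Brij 35, 0.02 mg/mL BSA, 0.1 mM Na3VO4, 2 mM DTT and 1% DMSO. Cofactors were added per kinase, with the same format for all three kinases.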

[2] = biological target: T2, JNK1 (Homo sapiens, UniProt P45983); test: HotSpot Kinase Assay, JNK1; format: biochemical; details: HotSpot radiometric assay, 33P-ATP
T2 construct: purchased Reaction Biology Corp
Description: (§1) The anti-JNK3 activity of compounds prepared as in the previous examples was evaluated using a Reaction Biology Corp. HotSpot Kinase Assay. Base reaction buffer was 20 mM HEPES (4-(2-hydroxyethyl)-1-piperazineethanesulfonic acid) at pH 7.5 with 10 mM MgCl2, 1 mM EGTA (ethylene glycol-bis(β-aminoethyl ether)-N,N,N′,N′-tetracetic acid), 0.02% Brij™ 35, 0.02 mg/mL BSA (bovine serum albumin), 0.1 mM Na3VO4, 2 mM DTT (dithiothreitol), and 1% DMSO. Required cofactors were added individually to each kinase reaction.
(§2) Activity against related enzymes JNK1 and P38a was further assessed using the same assay.

[3] = biological target: T3, p38a (Homo sapiens, UniProt Q16539); test: HotSpot Kinase Assay, P38a; format: biochemical; details: HotSpot radiometric assay, 33P-ATP
T3 construct: purchased Reaction Biology Corp
Description: as §1, §2

[4] = tested on: c-jun phosphorylation in SH-SY5Y human neuroblastoma cell line; test: In Cell Western Assay, p-c-jun after TNFa; format: cell-based; details: SH-SY5Y cells, 25 ng/ml TNFa 1 hour, read-out: Phosphoryl. in SH-SY5Y
Description: SH-SY5Y human neuroblastoma cell line was utilized for the assay. […] Next day, cells were starved of serum for 2 hours by media replacement with serum free DMEM:F12. Cells were then pretreated with inhibitors in DMEM:F12 for 30 min, which was followed by the addition of 25 ng/ml of TNFa for 1 hour. At the end of incubation, cells were fixed with 3% paraformaldehyde for 20 min at room temperature. Following three washes with 0.1 M phosphate buffer (pH 7.0) with shaking during washes, cells were treated with Licor blocking buffer (1:1 dilution in PBS with 0.3% Triton X-100) for 1 hour on a shaker. […] Next day, cells were washed with PBS containing 0.3% Triton X-100 for 5 min each three times with shaking. […] Following three 5 min washes, cells were incubated for nuclei staining with Alexa 680 succinidimyl ester (Thermofisher cat #, A20008) at 1/40,000 dilution for 15 min with shaking and subsequent three 5 min washes. P-c-jun and nuclei signals were detected using Odyssey LiCor Infrared scanner. The p-c-jun signal of each well was normalized to the cell number using nuclei signal.

[5] = biological target: Abl-1 (Homo sapiens, UniProt P00519); test: Enzymatic kinase assay, Abl-1; format: biochemical
Description: [Worded in the source for another target; this target is reported under the same test.] as §1
(§3) Kinase activity was evaluated as follows: • (1) Substrate was dissolved in freshly prepared reaction buffer • (2) Any required cofactors were dissolved in the substrate solution • (3) Kinase was added to the substrate solution followed by gentle mixing • (4) Compounds to be tested dissolved in 100% DMSO were added to the kinase reaction mixture using an Echo550 acoustic liquid handler (Labcyte, San Jose, CA) and incubated for 20 minutes at room temperature • (5) ^33P-ATP was added to the reaction mixture to initiate the kinase reaction • (6) The reaction mixture was incubated for 2 hours at room temperature • (7) Kinase activity was detected by spotting the kinase reaction on Whatman P81 paper, exposing and developing the images using a phosphorimager, and quantifying counts to determine kinase activity

[6] = biological target: DDR1 (Homo sapiens, UniProt Q08345); test: Enzymatic kinase assay, DDR1; format: biochemical
Description: [Worded in the source for another target; this target is reported under the same test.] as §1, §3

[7] = biological target: HGK (Homo sapiens, UniProt O95819); test: Enzymatic kinase assay, HGK; format: biochemical
Description: [Worded in the source for another target; this target is reported under the same test.] as §1, §3

[8] = biological target: MINK1 (Homo sapiens, UniProt Q8N4C8); test: Enzymatic kinase assay, MINK1; format: biochemical
[9] = biological target: TNIK (Homo sapiens, UniProt Q9UKE5); test: Enzymatic kinase assay, TNIK; format: biochemical
Description: [Worded in the source for another target; this target is reported under the same test.] as §1, §3

HGK, sequence (O95819 whole entry): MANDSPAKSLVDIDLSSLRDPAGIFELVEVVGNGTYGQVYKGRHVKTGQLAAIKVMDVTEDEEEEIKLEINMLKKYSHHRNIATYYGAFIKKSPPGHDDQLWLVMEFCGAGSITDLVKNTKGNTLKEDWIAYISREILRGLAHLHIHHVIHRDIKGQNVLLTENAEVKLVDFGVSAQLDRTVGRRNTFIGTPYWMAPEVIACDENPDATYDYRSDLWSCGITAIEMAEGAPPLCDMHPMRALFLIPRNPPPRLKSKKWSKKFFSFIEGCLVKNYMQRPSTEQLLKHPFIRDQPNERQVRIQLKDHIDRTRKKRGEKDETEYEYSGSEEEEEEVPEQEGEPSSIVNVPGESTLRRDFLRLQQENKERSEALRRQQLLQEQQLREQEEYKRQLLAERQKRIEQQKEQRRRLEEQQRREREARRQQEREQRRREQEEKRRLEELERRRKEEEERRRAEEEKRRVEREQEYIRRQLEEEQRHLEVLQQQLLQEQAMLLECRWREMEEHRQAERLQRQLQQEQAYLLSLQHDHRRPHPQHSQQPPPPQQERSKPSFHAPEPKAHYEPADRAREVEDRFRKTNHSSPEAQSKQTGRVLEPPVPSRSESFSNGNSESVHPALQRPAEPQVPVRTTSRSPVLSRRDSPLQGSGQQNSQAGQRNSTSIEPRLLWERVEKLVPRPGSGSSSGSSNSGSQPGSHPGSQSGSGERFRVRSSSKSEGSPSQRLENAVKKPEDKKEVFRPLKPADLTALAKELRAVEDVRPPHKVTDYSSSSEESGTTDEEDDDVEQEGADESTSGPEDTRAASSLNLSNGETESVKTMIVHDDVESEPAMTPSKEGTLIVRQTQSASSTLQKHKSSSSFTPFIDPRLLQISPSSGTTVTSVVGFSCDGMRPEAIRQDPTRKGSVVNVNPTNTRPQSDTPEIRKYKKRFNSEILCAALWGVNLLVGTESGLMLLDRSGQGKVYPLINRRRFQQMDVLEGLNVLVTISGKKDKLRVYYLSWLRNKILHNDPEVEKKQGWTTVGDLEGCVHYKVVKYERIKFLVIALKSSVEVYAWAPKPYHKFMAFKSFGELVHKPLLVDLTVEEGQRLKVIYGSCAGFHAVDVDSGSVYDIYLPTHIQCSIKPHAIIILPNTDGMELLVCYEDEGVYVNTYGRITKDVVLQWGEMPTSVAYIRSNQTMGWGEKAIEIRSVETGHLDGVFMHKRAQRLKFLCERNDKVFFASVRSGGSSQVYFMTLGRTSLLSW
T2 sequence (P45983 whole entry): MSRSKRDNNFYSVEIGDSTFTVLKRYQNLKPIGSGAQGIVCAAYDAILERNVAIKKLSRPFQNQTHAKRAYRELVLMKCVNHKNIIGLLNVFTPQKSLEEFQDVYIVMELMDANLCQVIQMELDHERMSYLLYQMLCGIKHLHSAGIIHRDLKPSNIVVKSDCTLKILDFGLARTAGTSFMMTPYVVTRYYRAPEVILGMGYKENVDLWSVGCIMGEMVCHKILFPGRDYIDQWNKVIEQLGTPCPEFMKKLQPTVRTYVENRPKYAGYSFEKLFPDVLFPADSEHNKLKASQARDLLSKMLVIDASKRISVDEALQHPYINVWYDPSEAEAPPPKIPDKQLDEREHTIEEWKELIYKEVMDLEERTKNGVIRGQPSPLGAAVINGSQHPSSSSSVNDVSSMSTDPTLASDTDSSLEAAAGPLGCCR
DDR1, sequence (Q08345 19-913): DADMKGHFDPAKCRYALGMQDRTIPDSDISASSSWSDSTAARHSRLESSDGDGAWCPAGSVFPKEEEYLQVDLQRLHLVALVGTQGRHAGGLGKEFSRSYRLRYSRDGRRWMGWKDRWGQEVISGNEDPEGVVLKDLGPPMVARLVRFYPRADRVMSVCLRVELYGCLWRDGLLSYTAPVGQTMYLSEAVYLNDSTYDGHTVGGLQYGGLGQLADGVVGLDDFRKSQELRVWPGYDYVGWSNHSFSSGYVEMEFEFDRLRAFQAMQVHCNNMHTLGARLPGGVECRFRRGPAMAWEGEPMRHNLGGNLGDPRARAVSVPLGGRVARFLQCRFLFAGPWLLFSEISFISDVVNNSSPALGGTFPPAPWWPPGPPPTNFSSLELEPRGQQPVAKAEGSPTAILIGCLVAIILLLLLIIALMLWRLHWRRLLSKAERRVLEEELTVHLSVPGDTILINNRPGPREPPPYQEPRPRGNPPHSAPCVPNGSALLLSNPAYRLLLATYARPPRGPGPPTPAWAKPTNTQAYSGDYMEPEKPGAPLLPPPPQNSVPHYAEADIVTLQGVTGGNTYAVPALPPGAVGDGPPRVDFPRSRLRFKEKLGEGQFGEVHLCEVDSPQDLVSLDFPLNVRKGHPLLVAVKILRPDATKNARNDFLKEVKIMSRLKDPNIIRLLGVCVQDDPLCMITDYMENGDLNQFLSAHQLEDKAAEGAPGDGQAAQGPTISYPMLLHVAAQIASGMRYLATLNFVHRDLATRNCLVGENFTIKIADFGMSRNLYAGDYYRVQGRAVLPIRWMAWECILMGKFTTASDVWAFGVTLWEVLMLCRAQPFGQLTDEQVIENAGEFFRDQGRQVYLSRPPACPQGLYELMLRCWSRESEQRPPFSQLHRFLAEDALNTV
Abl-1, sequence (P00519 whole entry): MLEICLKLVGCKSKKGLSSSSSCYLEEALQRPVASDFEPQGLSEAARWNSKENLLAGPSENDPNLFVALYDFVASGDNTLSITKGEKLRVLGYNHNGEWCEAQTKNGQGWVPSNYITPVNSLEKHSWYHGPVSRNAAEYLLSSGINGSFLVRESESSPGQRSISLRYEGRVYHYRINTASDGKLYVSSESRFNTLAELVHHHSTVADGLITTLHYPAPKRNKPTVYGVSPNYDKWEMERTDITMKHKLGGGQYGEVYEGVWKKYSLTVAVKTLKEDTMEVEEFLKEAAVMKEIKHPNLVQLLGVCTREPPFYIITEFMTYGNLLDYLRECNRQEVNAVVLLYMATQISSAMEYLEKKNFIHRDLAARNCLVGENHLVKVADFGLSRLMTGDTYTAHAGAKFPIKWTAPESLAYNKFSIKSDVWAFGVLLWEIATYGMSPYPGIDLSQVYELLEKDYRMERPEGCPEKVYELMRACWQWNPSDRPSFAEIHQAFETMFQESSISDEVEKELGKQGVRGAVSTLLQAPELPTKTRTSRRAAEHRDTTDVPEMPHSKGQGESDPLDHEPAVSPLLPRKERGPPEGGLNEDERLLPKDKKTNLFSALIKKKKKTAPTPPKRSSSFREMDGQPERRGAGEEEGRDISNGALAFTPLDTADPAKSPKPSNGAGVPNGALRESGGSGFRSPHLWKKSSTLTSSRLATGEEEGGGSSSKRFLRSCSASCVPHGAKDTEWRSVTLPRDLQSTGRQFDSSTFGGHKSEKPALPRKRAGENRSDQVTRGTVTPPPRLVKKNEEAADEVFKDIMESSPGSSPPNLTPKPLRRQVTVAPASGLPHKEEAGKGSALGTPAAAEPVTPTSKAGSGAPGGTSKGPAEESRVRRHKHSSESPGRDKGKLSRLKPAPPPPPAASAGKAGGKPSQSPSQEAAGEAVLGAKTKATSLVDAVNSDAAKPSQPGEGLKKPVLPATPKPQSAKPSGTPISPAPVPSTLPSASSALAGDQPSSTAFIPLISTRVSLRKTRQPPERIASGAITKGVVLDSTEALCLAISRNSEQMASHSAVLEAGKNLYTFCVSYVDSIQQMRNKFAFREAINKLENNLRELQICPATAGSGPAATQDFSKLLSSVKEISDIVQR
T3 sequence (Q16539 whole entry): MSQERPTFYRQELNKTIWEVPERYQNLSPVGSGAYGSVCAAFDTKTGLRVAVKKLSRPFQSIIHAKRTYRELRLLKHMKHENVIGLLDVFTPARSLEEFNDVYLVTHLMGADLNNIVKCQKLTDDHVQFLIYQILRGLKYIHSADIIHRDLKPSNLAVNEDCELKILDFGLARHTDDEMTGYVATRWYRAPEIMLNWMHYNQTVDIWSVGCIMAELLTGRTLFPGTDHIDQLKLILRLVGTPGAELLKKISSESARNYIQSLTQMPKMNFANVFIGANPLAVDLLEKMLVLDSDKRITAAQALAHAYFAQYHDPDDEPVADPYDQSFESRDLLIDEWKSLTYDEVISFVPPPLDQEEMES
T1 sequence (P53779 whole entry): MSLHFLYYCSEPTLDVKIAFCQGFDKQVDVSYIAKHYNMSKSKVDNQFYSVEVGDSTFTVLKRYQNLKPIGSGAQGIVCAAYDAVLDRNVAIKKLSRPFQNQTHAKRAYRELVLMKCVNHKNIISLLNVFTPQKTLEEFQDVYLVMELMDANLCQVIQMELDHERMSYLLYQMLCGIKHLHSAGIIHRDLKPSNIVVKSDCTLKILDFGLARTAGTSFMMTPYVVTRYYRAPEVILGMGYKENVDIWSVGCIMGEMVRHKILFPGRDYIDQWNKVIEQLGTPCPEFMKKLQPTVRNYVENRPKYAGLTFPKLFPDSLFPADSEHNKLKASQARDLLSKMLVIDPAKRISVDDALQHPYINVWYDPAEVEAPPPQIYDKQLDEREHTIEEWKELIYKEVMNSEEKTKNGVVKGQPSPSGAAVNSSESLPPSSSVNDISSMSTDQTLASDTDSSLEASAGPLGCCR

SMILES | IC50 [1] [nM] | IC50 [2] [nM] | IC50 [3] [nM] | IC50 [4] [nM] | IC50 [5] [nM] | IC50 [6] [nM] | IC50 [7] [nM] | IC50 [8] [nM] | IC50 [9] [nM] | IC50 ([4]; printed as a numeric range) [nM]
[2H]C([2H])([2H])N1CC[C@H](NC(=O)c2cc(-n3ncc4cc(Oc5ccccc5Cl)ccc43)cs2)C1 [Compound 9, (S)-4-(5-(2-chlorophenoxy)-1H-indazol-1-yl)-N-(1-(methyl-d3)pyrrolidin-3-yl)thiophene-2-carboxamide] | < 200 | > 1000 | > 1000 | > 1000 | – | – | – | – | – | –
CN1CCN=C1NC(=O)c1cc(-n2ncc3nc(Nc4ccccc4Cl)ccc32)cs1 [Compound 58, 4-(5-((2-chlorophenyl)amino)-1H-pyrazolo[4,3-b]pyridin-1-yl)-N-(1-methyl-4,5-dihydro-1H-imidazol-2-yl)thiophene-2-carboxamide] | < 200 | > 1000 | > 1000 | – | > 1000 | < 200 | < 200 | < 200 | < 200 | –
[2H]C([2H])([2H])N1CC[C@H](NC(=O)c2cc(-n3ncc4cc(Nc5ccccc5Cl)ccc43)cs2)C1 [Compound 30, (S)-4-(5-((2-chlorophenyl)amino)-1H-indazol-1-yl)-N-(1-(methyl-d3)pyrrolidin-3-yl)thiophene-2-carboxamide] | < 200 | 200 to 1000 | 200 to 1000 | < 200 | – | – | – | – | – | –
CNC(=O)c1cc(-n2ncc3cc(Nc4c(F)cccc4OC)ccc32)cs1 [Compound 93, 4-(5-((2-fluoro-6-methoxyphenyl)amino)-1H-indazol-1-yl)-N-methylthiophene-2-carboxamide] | < 200 | > 1000 | 200 to 1000 | – | – | 200 to 1000 | – | – | – | –
[2H]C([2H])([2H])N1CC[C@H](NC(=O)c2cc(-n3ncc4cc(Nc5ccccc5Cl)c(F)cc43)cs2)C1 [Compound 36, (S)-4-(5-((2-chlorophenyl)amino)-6-fluoro-1H-indazol-1-yl)-N-(1-(methyl-d3)pyrrolidin-3-yl)thiophene-2-carboxamide] | < 200 | 200 to 1000 | 200 to 1000 | < 200 | – | – | – | – | – | –
CNC(=O)c1cc(-n2ncc3cc(Nc4ccccc4Cl)c(F)cc32)cs1 [Compound 28, 4-(5-((2-chlorophenyl)amino)-6-fluoro-1H-indazol-1-yl)-N-methylthiophene-2-carboxamide] | < 200 | 200 to 1000 | < 200 | < 200 | – | – | – | – | – | –
COc1cccc(Cl)c1Nc1cc2cnn(-c3csc(C(=O)NC4COC4)c3)c2nc1C [Compound 110, 4-(5-((2-chloro-6-methoxyphenyl)amino)-6-methyl-1H-pyrazolo[3,4-b]pyridin-1-yl)-N-(oxetan-3-yl)thiophene-2-carboxamide] | < 200 | > 1000 | 200 to 1000 | – | > 1000 | > 1000 | > 1000 | > 1000 | 200 to 1000 | –
CNC(=O)c1cc(-n2ncc3cc(Nc4ccccc4Cl)ncc32)cs1 [Compound 6, 4-(5-((2-chlorophenyl)amino)-1H-pyrazolo[3,4-c]pyridin-1-yl)-N-methylthiophene-2-carboxamide] | < 200 | > 1000 | 200 to 1000 | – | – | – | – | – | – | 10 to 100
Cc1nc2c(cnn2-c2csc(C(=O)NC3COC3)c2)cc1Nc1cccc(F)c1Cl [Compound 100, 4-(5-((2-chloro-3-fluorophenyl)amino)-6-methyl-1H-pyrazolo[3,4-b]pyridin-1-yl)-N-(oxetan-3-yl)thiophene-2-carboxamide] | < 200 | 200 to 1000 | 200 to 1000 | – | – | – | – | – | – | –
COCC(COC)NC(=O)c1cc(-n2ncc3nc(Oc4ccccc4Cl)ccc32)cs1 [Compound 48, 4-(5-(2-chlorophenoxy)-1H-pyrazolo[4,3-b]pyridin-1-yl)-N-(1,3-dimethoxypropan-2-yl)thiophene-2-carboxamide] | > 1000 | > 1000 | > 1000 | – | – | – | – | – | – | –
CNC(=O)c1cc(-n2ncc3cc(Nc4cccc(C)c4Cl)ncc32)cs1 [Compound 25, 4-(5-((2-chloro-3-methylphenyl)amino)-1H-pyrazolo[3,4-c]pyridin-1-yl)-N-methylthiophene-2-carboxamide] | < 200 | 200 to 1000 | 200 to 1000 | – | – | – | < 200 | < 200 | < 200 | –
CC(C)NC(=O)c1cc(-n2ncc3nc(Nc4ccccc4Cl)ccc32)cs1 [Compound 54, 4-(5-((2-chlorophenyl)amino)-1H-pyrazolo[4,3-b]pyridin-1-yl)-N-isopropylthiophene-2-carboxamide] | < 200 | 200 to 1000 | 200 to 1000 | – | – | – | – | – | – | –
Cc1sc(C(=O)NC2COC2)cc1-n1ncc2cc(Nc3ccccc3Cl)cnc21 [Compound 68, 4-(5-((2-chlorophenyl)amino)-1H-pyrazolo[3,4-b]pyridin-1-yl)-5-methyl-N-(oxetan-3-yl)thiophene-2-carboxamide] | < 200 | 200 to 1000 | > 1000 | – | – | – | – | – | – | –
O=C(NC1CC1)c1cc(-n2ncc3cc(Nc4ccccc4Cl)c(F)cc32)cs1 [Compound 31, 4-(5-((2-chlorophenyl)amino)-6-fluoro-1H-indazol-1-yl)-N-cyclopropylthiophene-2-carboxamide] | < 200 | < 200 | < 200 | – | – | – | – | – | – | –

Now from value to compound:

IC50 [1] [nM] | IC50 [2] [nM] | IC50 [3] [nM] | IC50 [4] [nM] | IC50 [5] [nM] | IC50 [6] [nM] | IC50 [7] [nM] | IC50 [8] [nM] | IC50 [9] [nM] | IC50 ([4]; printed as a numeric range) [nM] | SMILES
< 200 | > 1000 | 200 to 1000 | – | 200 to 1000 | < 200 | < 200 | 200 to 1000 | < 200 | – | CNC(=O)c1cc(-n2ncc3cc(Nc4c(F)cccc4Cl)c(OC)cc32)cs1 [Compound 91, 4-(5-((2-chloro-6-fluorophenyl)amino)-6-methoxy-1H-indazol-1-yl)-N-methylthiophene-2-carboxamide]
200 to 1000 | > 1000 | > 1000 | – | – | – | – | – | – | – | Cc1nc2c(cnn2-c2csc(C(=O)NC3(C)COC3)c2)cc1Nc1ccccc1Cl [Compound 79, 4-(5-((2-chlorophenyl)amino)-6-methyl-1H-pyrazolo[3,4-b]pyridin-1-yl)-N-(3-methyloxetan-3-yl)thiophene-2-carboxamide]
< 200 | 200 to 1000 | 200 to 1000 | – | – | – | – | – | – | – | COCCNC(=O)c1cc(-n2ncc3nc(Oc4ccccc4Cl)ccc32)cs1 [Compound 56, 4-(5-(2-chlorophenoxy)-1H-pyrazolo[4,3-b]pyridin-1-yl)-N-(2-methoxyethyl)thiophene-2-carboxamide]
< 200 | > 1000 | 200 to 1000 | < 200 | – | – | – | – | – | – | CNC(=O)c1cc(-n2ncc3nc(Nc4ccccc4Cl)ccc32)cs1 [Compound 50, 4-(5-((2-chlorophenyl)amino)-1H-pyrazolo[4,3-b]pyridin-1-yl)-N-methylthiophene-2-carboxamide]
< 200 | 200 to 1000 | 200 to 1000 | – | – | – | – | – | – | – | CC(C)N1CC[C@@H](NC(=O)c2cc(-n3ncc4cc(Nc5ccccc5Cl)ccc43)cs2)C1 [Compound 35, (R)-4-(5-((2-chlorophenyl)amino)-1H-indazol-1-yl)-N-(1-isopropylpyrrolidin-3-yl)thiophene-2-carboxamide]
< 200 | < 200 | < 200 | – | – | – | – | – | – | – | CC(C)NC(=O)c1cc(-n2ncc3cc(Nc4ccccc4Cl)c(F)cc32)cs1 [Compound 44, 4-(5-((2-chlorophenyl)amino)-6-fluoro-1H-indazol-1-yl)-N-isopropylthiophene-2-carboxamide]
